Data: US4536400A, “Phosphonoformic acid esters” (priority 1977, dated 1985)
Where “and” joins values, the source holds several entries; their conditions need not be identical. Identical values can stand only once. Like-named read-outs stand apart in the source and are kept apart here.

Assays:
[1] = system: cutaneous herpes simplex type 1 infections; assay: Inhibition of cutaneous herpes on guinea pigs; type: in vivo, guinea pig; conditions: scale 0 to 3
From the text: The effect of cutaneous herpes simplex type 1 infections have been measured in a guinea pig model described by Hubler et al. J. Invest Dermatol 69 (1974) 92. […] The appearance of an infected treated area and a similar infected untreated (only isopropanol-glycerol-water) area was scored daily on a scale from 0 to 3. The total effect is judged from the score at day 5.

[2] = system: herpes simplex type 1; assay: Plaque reduction assay for herpes simplex type 1 on GMK monolayers; type: cell-based; conditions: for inhibition at 500 µM: Human alphaherpesvirus 1, 500 μM test compound; for inhibition at 400 µM: Human alphaherpesvirus 1, 400 μM test compound
Description: The plaque reduction assay for herpes simplex type 1 was performed on GMK (Green Monkey Kidney) cells as described by Ejereito et al. J. Gen. Virol. 2 (1968) 357. Monolayers on 5 cm petri dishes were used and after virus adsorption the test compound was added in the medium.
The plaque reduction assay for herpes simplex type 1 was performed on GMK (Green Monkey Kidney) cells as described by Ejereito et al. J. Gen. Virol 2 (1968) 357. Monolayers on 5 cm petri dishes were used and after virus adsorption the test compound was added in the medium.
Inhibition of herpes simplex type 1 plaque on GMK monolayers

[3] = system: influenza (WSN Wilson Smith Neurotropic type A); assay: Inhibition of influenza WSN plaque on MDCK monolayers; type: cell-based, influenza virus
[4] = Acid stability test in 0.1 N HCl (t.l.c. estimate of decomposition products); type: physicochemical; conditions: incubated in 0.1 N HCl at 37° C. for 2 hours; 100 μg compound applied
Description: The acid stability was investigated by dissolving 5 mg of each compound in 1 ml of 0.1 N HCl in a test tube. For use as references 0.2 ml of each solution was withdrawn, immediately treated with 0.2 ml of a 10% aqueous solution of NaHCO3 and frozen. The remaining 0.8 ml of each solution was incubated at 37° C. for 2 hours. After incubation, 0.8 ml of a 10% aqueous solution of NaHCO3 was added to each solution and the solutions were frozen. The incubated compounds and the reference compounds were lyophilized to dryness and redissolved in distilled H2 O, 0.2 ml and 1.0 ml respectively, for each reference solution and incubated solution. The solutions were applied to silica gel (Merck PF254, 20×20 cm) and polyethylene imine (Macherey-Nagel PEI, 20×20 cm) thin layer plates. A total of 20 μl of the reference solutions (100 μg compound) and 25 μl of the incubated solutions ([…]) were applied. To each plate was also added, as references, solutions of phosphorous acid (H2 HPO3) (5 and 20 μg) and of trisodiumphosphonoformate (5 and 20 μg). (Decomposition of phosphonoformic acid at low pH produces phosphorous acid).
The silica gel plates were prepared in duplicate and eluted with a solution composed of methanol--10% aq ammonia--trichloroacetic acid--water (50--15--5--3, v/v) and the polyethylene imine plates were eluted with a 1M aq lithium chloride solution. […]

[5] = Preliminary acute toxicity test in mice; type: in vivo; conditions: groups of two male NMRI mice
Description: A preliminary acute toxicity test was carried out in mice. Groups of two male mice of the NMRI strain weighing 20-21 g received the test compound in doses of 62.5-500 mg/kg ip. The compound was given as a solution in 0.9% NaCl. The number of animals dead 24 hours after injection was as follows.

[6] = system: influenza Victoria; assay: Inhibition of influenza Victoria plaque on MDCK monolayers; type: cell-based, influenza virus
[7] = topical 2% solution, start of treatment 24 hours after infection
[8] = treated in 0.1% Tween 80-10% aqueous glycerol
[9] = treated in 0.1% Tween 80-10% aqueous glycerol, start of treatment 24 hours after infection
[10] = topical 2% solution in isopropanol-glycerol-water twice daily for 3 days starting 4 hours after infection
[11] = Day 1, 10 μmol intraperitoneally, urine of two NMRI male mice
[12] = Day 2, 10 μmol intraperitoneally, urine of two NMRI male mice
[13] = Day 3, 10 μmol intraperitoneally, urine of two NMRI male mice

## O=C(Oc1ccccc1)P(=O)([O-])Oc1ccccc1.[Na+] [VIS 043, Sodium phenyl phenoxycarbonylphosphonate]
[1]; [7]
  Score at day 5, treated: 0
[2]; 20 μM test compound
  Inhibition (%): ~ 0%
[2]; 40 μM test compound
  Inhibition (%): > 90.9%
[2]; 100 μM test compound, 100 µM
  Inhibition (%): > 99.9% and > 99%
[2]; 500 μM test compound
  Inhibition (%): > 99.9%
[3]; 20 μM test compound, 20 µM
  Inhibition (%): 62% and 47%
[3]; 100 μM test compound, 100 µM
  Inhibition (%): 84% and 90% and > 99.9%
[3]; 500 μM test compound
  Inhibition (%): > 99.9%

## COc1ccc(OP(=O)(O)C(=O)O)cc1 [VIS 067, p-Methoxyphenyl disodium oxycarbonylphosphonate]
[1]; [8]
  Score at day 5, treated: 1
[2]; 5 μM test compound
  Inhibition (%): 57%
[2]; 20 μM test compound
  Inhibition (%): 87%
[2]; 100 μM test compound
  Inhibition (%): 99%
[2]; 500 μM test compound
  Inhibition (%): > 99.9%
[3]; 100 μM test compound
  Inhibition (%): 58%
[3]; 500 μM test compound, 500 µM
  Inhibition (%): 73% and > 99.9%

## O=C(Oc1ccc(Cl)cc1)P(=O)([O-])[O-].[Na+].[Na+] [VIS 238, Disodium p-chlorophenoxycarbonylphosphonate]
[1]; [9]
  Score at day 5, treated: 1
[2]; 100 μM test compound, 100 µM
  Inhibition (%): 52% and ~ 90%
[2]; 500 μM test compound, 500 µM
  Inhibition (%): 99%
[2]
  inhibition at 500 µM: 96%

## COc1ccc(OC(=O)P(=O)([O-])[O-])cc1.[Na+].[Na+] [VIS 239, Disodium p-methoxyphenoxycarbonylphosphonate]
[1]; [9]
  Score at day 5, treated: 1
[2]; 500 μM test compound, 500 µM
  Inhibition (%): 36% and 52% and 70%
[2]
  inhibition at 400 µM: ~60%
[2]; Human alphaherpesvirus 1, 600 μM test compound
  inhibition at 600 µM: > 90%

## O=C(O)P(=O)(O)O [EHB 776, trisodium phosphonoformate]
[4]
  Estimated formation of phosphorous acid: 20 µg

## O=C(O)P(=O)(O)Oc1ccccc1 [drawing 125]
[5]; 62.5 mg/kg ip
  number of animals dead 24 hours after injection: 0/2
[5]; 125 mg/kg ip
  number of animals dead 24 hours after injection: 0/2
[5]; 250 mg/kg ip
  number of animals dead 24 hours after injection: 0/2
[5]; 500 mg/kg ip
  number of animals dead 24 hours after injection: 0/2

## Cc1ccc(OP(=O)(Oc2ccc(C)cc2)C(=O)Oc2ccccc2)cc1 [VIS 056, Di-p-tolyl phenoxycarbonylphosphonate]
[2]; 100 μM test compound
  Inhibition (%): > 99%
[2]; 500 μM test compound
  Inhibition (%): > 99%
[6]; 200 μM test compound
  Inhibition (%): 75%

## O=C(Oc1ccccc1)P(=O)(Oc1ccccc1)Oc1ccccc1 [VIS 040, Hydroxycarbonylphosphonic Acid Triphenyl Ester]
[1]; [7]
  Score at day 5, treated: 0
[3]; 100 μM test compound
  Inhibition (%): 90%
[3]; 500 μM test compound
  Inhibition (%): > 99%

## O=C(Oc1ccccc1)P(=O)(O)Oc1ccccc1
[5]; 62.5 mg/kg ip
  number of animals dead 24 hours after injection: 0/2
[5]; 125 mg/kg ip
  number of animals dead 24 hours after injection: 0/2
[5]; 250 mg/kg ip
  number of animals dead 24 hours after injection: 0/2
[5]; 500 mg/kg ip
  number of animals dead 24 hours after injection: 0/2

## Cc1ccc(OC(=O)P(=O)([O-])[O-])cc1.[Na+].[Na+] [VIS 130, Disodium p-tolyloxycarbonylphosphonate]
[1]; [9]
  Score at day 5, treated: 1
[2]; Human alphaherpesvirus 1, 200 μM test compound
  inhibition at 200 µM: ~80%
[2]
  inhibition at 400 µM: > 90%

## O=C(O)P(=O)(O)Oc1ccc2c(c1)CCC2 [VIS 442, 5-Indanyl disodium oxycarbonylphosphonate]
[1]; [9]
  Score at day 5, treated: 1
[2]; 10 μM test compound
  Inhibition (%): > 90%
[2]; 500 μM test compound
  Inhibition (%): > 99.9%
[3]; 500 μM test compound
  Inhibition (%): 94%

## Cc1ccc(OP(=O)([O-])C(=O)Oc2ccccc2)cc1.[Na+] [VIS 065, sodium p-tolyl phenoxycarbonylphosphonate]
[2]; 10 μM test compound
  Inhibition (%): ~ 50%
[2]; 20 μM test compound
  Inhibition (%): > 90%
[6]; 200 μM test compound
  Inhibition (%): 76%
[6]; 500 μM test compound
  Inhibition (%): > 99%

## O=C(O)P(=O)(O)O [drawing 121, reference compound]
mouse, in vivo, ip
  Recovered phosphonoformic acid activity in urine: 1.25 μmol phosphonoformic acid

## O=C(Oc1ccccc1)P(=O)(O)O [drawing 123]
[5]; 62.5 mg/kg ip
  number of animals dead 24 hours after injection: 0/2
[5]; 125 mg/kg ip
  number of animals dead 24 hours after injection: 0/2
[5]; 250 mg/kg ip
  number of animals dead 24 hours after injection: 0/2
[5]; 500 mg/kg ip
  number of animals dead 24 hours after injection: 0/2

## O=C(O)P(=O)(O)Oc1ccc(Cl)cc1 [VIS 066, p-chlorophenyl disodium oxycarbonylphosphonate]
[2]; 5 μM test compound, 5 µM
  Inhibition (%): 89% and ~ 75%
[2]; 10 μM test compound
  Inhibition (%): > 90%
[2]; 20 μM test compound
  Inhibition (%): 98%
[2]; 100 μM test compound
  Inhibition (%): > 99.9%
[2]; 500 μM test compound
  Inhibition (%): > 99.9%
[3]; 100 μM test compound
  Inhibition (%): 54%
[3]; 500 μM test compound
  Inhibition (%): > 99.9%

## O=C(O)P(=O)(O)Oc1ccccc1 [VIS 041, Phenyl disodium oxycarbonylphosphonate]
[1]; [7]
  Score at day 5, treated: 0
[2]; 10 μM test compound
  Inhibition (%): ~ 50%
[2]; 40 μM test compound
  Inhibition (%): > 90%
[2]; 100 μM test compound, 100 µM
  Inhibition (%): > 99.9% and 99%
[2]; 500 μM test compound
  Inhibition (%): > 99.9%
[3]; 500 μM test compound
  Inhibition (%): > 99.9%

## COc1ccc(OP(=O)([O-])C(=O)Oc2ccccc2)cc1.[Na+] [VIS 058, Sodium p-methoxyphenyl phenoxycarbonylphosphonate]
[2]; 10 μM test compound
  Inhibition (%): ~ 50%
[2]; 40 μM test compound
  Inhibition (%): > 90%
[2]; 100 μM test compound
  Inhibition (%): 88%
[2]; 500 μM test compound
  Inhibition (%): > 99.9%
[3]; 100 μM test compound
  Inhibition (%): 84%
[3]; 500 μM test compound
  Inhibition (%): > 99.9%

## O=C(Oc1ccccc1)P(=O)([O-])Oc1ccc(Cl)cc1.[Na+] [VIS 063, sodium p-chlorophenyl phenoxycarbonylphosphonate]
[1]; [10]
  Score at day 5, treated: 2 and 3
[2]; 5 μM test compound
  Inhibition (%): ~ 50%
[2]; 10 μM test compound
  Inhibition (%): > 90%
[2]; 20 μM test compound
  Inhibition (%): 69%
[2]; 100 μM test compound
  Inhibition (%): > 99.9%
[2]; 500 μM test compound
  Inhibition (%): > 99.9%
[3]; 100 μM test compound
  Inhibition (%): 72%
[3]; 500 μM test compound
  Inhibition (%): > 99.9%

## O=C(Oc1ccccc1)P(=O)([O-])[O-].[Na+].[Na+] [VIS 412, Disodium phenoxycarbonylphosphonate]
[1]; [10]
  Score at day 5, treated: 0
[1]; [7]
  Score at day 5, treated: 0
[2]; 500 μM test compound, 500 µM
  Inhibition (%): 88%
[2]; Human alphaherpesvirus 1, 60 μM test compound
  inhibition at 60 µM: ~50%
[2]
  inhibition at 500 µM: 80%

## Cc1ccc(OP(=O)(O)C(=O)O)cc1 [VIS 059, p-tolyl disodium oxycarbonylphosphonate]
[1]; [8]
  Score at day 5, treated: 1 and 2
[2]; 5 μM test compound, 5 µM
  Inhibition (%): 57% and > 90%
[2]; 20 μM test compound
  Inhibition (%): 95%
[2]; 100 μM test compound
  Inhibition (%): > 99.9%
[2]; 500 μM test compound
  Inhibition (%): > 99.9%
[3]; 20 μM test compound, 20 µM
  Inhibition (%): 58% and 36%
[3]; 500 μM test compound, 500 µM
  Inhibition (%): > 99.9% and 91% and 92%

## O=C(O)P(=O)(O)Oc1ccccc1 [drawing 120]
[11]
  Recovered phosphonoformic acid activity in urine: 1.00 μmol phosphonoformic acid
[12]
  Recovered phosphonoformic acid activity in urine: 0.25 μmol phosphonoformic acid
[13]
  Recovered phosphonoformic acid activity in urine: 0.25 μmol phosphonoformic acid

## CCOC(=O)c1ccc(OC(=O)P(=O)([O-])[O-])cc1.[Na+].[Na+] [VIS 242, Disodium p-(ethoxycarbonyl)phenoxycarbonylphosphonate]
[1]; [9]
  Score at day 5, treated: 1

## Cc1ccc(OC(=O)P(=O)(O)O)cc1 [drawing 119]
[11]
  Recovered phosphonoformic acid activity in urine: 1.25 μmol phosphonoformic acid
[12]
  Recovered phosphonoformic acid activity in urine: 0.25 μmol phosphonoformic acid
[13]
  Recovered phosphonoformic acid activity in urine: 0.10 μmol phosphonoformic acid

## O=C(Oc1ccc(Cl)c(Cl)c1)P(=O)(O)O [VIS 135, Disodium 3,4-dichlorophenoxycarbonylphosphonate]
[2]; Human alphaherpesvirus 1, 100 μM test compound
  inhibition at 100 µM: 85%
